Test results from US5234907A, “Synthetic vasoactive intestinal peptide analogs” (Hoffmann-La Roche Inc., priority 1991, dated 1993).
*1 amine or outer side, *2 acyl side, *3 side chain or, on linkers, in order; H or OH if unused. [ ]: non-standard residue; d: D form. The star is where a group is joined. Cys(Acm) = CC(=O)NCSC[C@H](N[*:1])C(=O)[*:2]; Phe(4-F) = N[C@@H](Cc1ccc(F)cc1)C(=O)O; Nle = CCCC[C@H](N)C(=O)O; Orn = NCCC[C@H](N)C(=O)O; Acm = CC(=O)NC*

Experiments:
guinea pigs = assay: In vivo bronchodilator activity by tracheal instillation against histamine-induced bronchoconstriction; design: species or system guinea pig; conditions: 100 μl, anesthetized male Hartley guinea pigs, histamine challenge 50 μg/kg i.v., inhibition of tracheal pressure increase
Description: The in vivo bronchodilator activity of VIP analogs in guinea pigs was assessed by the tracheal instillation route of administration. This technique utilized male guinea pigs (Hartley strain, Charles River) weighing 400-600 g. Animals were anesthetized with urethane (2 g/kg) intraperitoneally and a polyethylene cannula was inserted into the jugular vein for intravenous drug administration.
The animals were tracheotomized and dosing solutions of distilled water or test compound dissolved in distilled water were administered into the trachea, approximately three-quarter the distance to the carina with a pipette. The concentration of the dosing solution was adjusted to deliver a constant volume of 100 μl. The animals were placed supine for one minute to aid drug delivery to the lung. One minute later, spontaneous breathing was arrested with succinylcholine chloride (1.2 mg/kg) administered intravenously, and the animals were ventilized with a Harvard Model 680 small animal respirator set at 40 breaths/min and 4.0 cm^3 stoke volume. The animals were challenged with a maximal constrictory dose of histamine (50 μg/kg, i.v.) and tracheal pressure (cm of water) was recorded from a Statham pressure transducer (P 32 AA).
The change in tracheal pressure was averaged for at least 3 control and 3 drug-treated animals and percent inhibition was calculated. The relative potency of compounds administered by the instillation route was determined by administering various doses of test compound and calculating the median inhibitory dose (ID50 value). The ID50 was determined from log dose-reasons curves generated by at least 3 doses that caused inhibitory effects between 10% and 90%. The correlation coefficient for the regression line of each antagonist was always greater than 0.95.
For determination of the time course of inhibition for various compounds, the time between administration of compound and challenge with histamine was varied. The time course of activity was calculated as the time when inhibition decreased to 40%.

[1] = test system: guinea pig tracheal smooth muscle; assay: Tracheal relaxant activity of VIP analogs on isolated guinea pig tracheal rings; type: cell-based; conditions: cumulative concentration response; responses as % of maximum response to VIP (10^-6 M=100%); at least three tissues pooled; linear regression
Description: The relaxant activity of the VIP analogs was studied in a model utilizing guinea pig trachea. [Wasserman, M. A. et al., in Vasoactive Intestinal Peptide, S. I. Said, ed., Raven Press, N.Y. 1982, pp 177-184]; All tissues were taken from male albino guinea pig weighing 400-600 g, anesthesized with urethane (2 g/kg, i.p.). After exanguination, the trachea were removed and divided into four ring segments (3 mm length). Each ring was suspended by 30 gauge stainless steel wires in a 10 mL jacketed tissue bath and attached via 4-0 silk thread to a Grass force displacement transducer (model FT03C, Grass Instruments Co., Quincy, Ma), for isometric recording of tension. The smooth muscle was bathed in modified Krebs solution of the following composition: NaCl, 120 mM; KCl, 4.7 mM; CaCl2, 2.5 mM; MgSO.4 7H2 O, 1.2 mM; NaHCO3, 25 mM; K2 HPO4 monobasic, 1.2 mM; and dextrose, 10 mM. Tissue baths were maintained at 37° C. and constantly bubbled with 95% O2 and 5% CO2. Responses were recorded on an 8 channel and a 4 channel Hewlett-Packard (model 7702B and 7754A, respectively) recorder (Hewlett-Packard, Paramus, N.J.). […] Frequent readjustments of tension were required during the 60 minute stabilization period which followed. Tissues were rinsed at 15 minute intervals.
Cumulative concentration response curves were obtained for each tissue by successive […] increases in the bath concentration of VIP or VIP analogs according to the method of VanRossum [Arch. Int. Pharmacodyn., 143, 299-330 (1963)]. Only one cumulative dose response curve was obtained on a single tissue. To minimize variability between tissues, relaxant responses were expressed as a percentage of the maximum response obtained to VIP (10^-6 M=100%) added at the end of each concentration response experiment. Responses obtained from at least three tissues were pooled and EC50 values were determined by linear regression.

Row | Substance | Bronchodilator activity in guinea pigs, ED50 (guinea pigs) | EC50 [1]
1 | Ac--[p-F--Phe^6, Glu^8, Lys^12, Nle^17, Val^26, Thr^28, Gly^29,30, Thr^31 ]--VIP (Ac-HSDAV[Phe(4-F)]TENYTKLRKQ[Nle]AVKKYLNSVLTGGT-NH2; SMILES CCCC[C@H](NC(=O)[C@H](CCC(N)=O)NC(=O)[C@H](CCCCN)NC(=O)[C@H](CCCNC(=N)N)NC(=O)[C@H](CC(C)C)NC(=O)[C@H](CCCCN)NC(=O)[C@@H](NC(=O)[C@H](Cc1ccc(O)cc1)NC(=O)[C@H](CC(N)=O)NC(=O)[C@H](CCC(=O)O)NC(=O)[C@@H](NC(=O)[C@H](Cc1ccc(F)cc1)NC(=O)[C@@H](NC(=O)[C@H](C)NC(=O)[C@H](CC(=O)O)NC(=O)[C@H](CO)NC(=O)[C@H](Cc1c[nH]cn1)NC(C)=O)C(C)C)[C@@H](C)O)[C@@H](C)O)C(=O)N[C@@H](C)C(=O)N[C@H](C(=O)N[C@@H](CCCCN)C(=O)N[C@@H](CCCCN)C(=O)N[C@@H](Cc1ccc(O)cc1)C(=O)N[C@@H](CC(C)C)C(=O)N[C@@H](CC(N)=O)C(=O)N[C@@H](CO)C(=O)N[C@H](C(=O)N[C@@H](CC(C)C)C(=O)N[C@H](C(=O)NCC(=O)NCC(=O)N[C@H](C(N)=O)[C@@H](C)O)[C@@H](C)O)C(C)C)C(C)C) [Ac--(SEQ ID NO: 14)--NH2] | 0.1 µg | 0.32 nM
2 | Ac--[Lys^12, Nle^17, Ala^19, Ala^25, Leu^26, Lys^27,28 ]--VIP (Ac-HSDAVFTDNYTKLRKQ[Nle]AAKKYLNALKK-NH2; SMILES CCCC[C@H](NC(=O)[C@H](CCC(N)=O)NC(=O)[C@H](CCCCN)NC(=O)[C@H](CCCNC(=N)N)NC(=O)[C@H](CC(C)C)NC(=O)[C@H](CCCCN)NC(=O)[C@@H](NC(=O)[C@H](Cc1ccc(O)cc1)NC(=O)[C@H](CC(N)=O)NC(=O)[C@H](CC(=O)O)NC(=O)[C@@H](NC(=O)[C@H](Cc1ccccc1)NC(=O)[C@@H](NC(=O)[C@H](C)NC(=O)[C@H](CC(=O)O)NC(=O)[C@H](CO)NC(=O)[C@H](Cc1c[nH]cn1)NC(C)=O)C(C)C)[C@@H](C)O)[C@@H](C)O)C(=O)N[C@@H](C)C(=O)N[C@@H](C)C(=O)N[C@@H](CCCCN)C(=O)N[C@@H](CCCCN)C(=O)N[C@@H](Cc1ccc(O)cc1)C(=O)N[C@@H](CC(C)C)C(=O)N[C@@H](CC(N)=O)C(=O)N[C@@H](C)C(=O)N[C@@H](CC(C)C)C(=O)N[C@@H](CCCCN)C(=O)N[C@@H](CCCCN)C(N)=O) [Ac--(SEQ ID NO: 12)--NH2] | 0.014 µg | 1.5 nM
3 | Ac--[Glu^8, Lys^12, Nle^17, Val^26, Thr^28, Gly^29,30, Cys(Acm)^31 ]--VIP (Ac-HSDAVFTENYTKLRKQ[Nle]AVKKYLNSVLTGG[Cys(Acm)]-NH2; SMILES CCCC[C@H](NC(=O)[C@H](CCC(N)=O)NC(=O)[C@H](CCCCN)NC(=O)[C@H](CCCNC(=N)N)NC(=O)[C@H](CC(C)C)NC(=O)[C@H](CCCCN)NC(=O)[C@@H](NC(=O)[C@H](Cc1ccc(O)cc1)NC(=O)[C@H](CC(N)=O)NC(=O)[C@H](CCC(=O)O)NC(=O)[C@@H](NC(=O)[C@H](Cc1ccccc1)NC(=O)[C@@H](NC(=O)[C@H](C)NC(=O)[C@H](CC(=O)O)NC(=O)[C@H](CO)NC(=O)[C@H](Cc1c[nH]cn1)NC(C)=O)C(C)C)[C@@H](C)O)[C@@H](C)O)C(=O)N[C@@H](C)C(=O)N[C@H](C(=O)N[C@@H](CCCCN)C(=O)N[C@@H](CCCCN)C(=O)N[C@@H](Cc1ccc(O)cc1)C(=O)N[C@@H](CC(C)C)C(=O)N[C@@H](CC(N)=O)C(=O)N[C@@H](CO)C(=O)N[C@H](C(=O)N[C@@H](CC(C)C)C(=O)N[C@H](C(=O)NCC(=O)NCC(=O)N[C@@H](CSCNC(C)=O)C(N)=O)[C@@H](C)O)C(C)C)C(C)C) [Ac--(SEQ ID NO: 85)--NH2] | 2.0 µg | 0.45 nM
4 | Ac--[Leu^5, Orn^12, Ala^17,19, Thr^25, Val^26, Thr^28, Gly^29,30, Cys(Acm)^31 ]--VIP (Ac-HSDALFTDNYT[Orn]LRKQAAAKYLNSTVNTGGC(Acm)-NH2; SMILES CC(=O)NCSC[C@H](NC(=O)CNC(=O)CNC(=O)[C@@H](NC(=O)[C@H](CC(N)=O)NC(=O)[C@@H](NC(=O)[C@@H](NC(=O)[C@H](CO)NC(=O)[C@H](CC(N)=O)NC(=O)[C@H](CC(C)C)NC(=O)[C@H](Cc1ccc(O)cc1)NC(=O)[C@H](CCCCN)NC(=O)[C@H](C)NC(=O)[C@H](C)NC(=O)[C@H](C)NC(=O)[C@H](CCC(N)=O)NC(=O)[C@H](CCCCN)NC(=O)[C@H](CCCNC(=N)N)NC(=O)[C@H](CC(C)C)NC(=O)[C@H](CCCN)NC(=O)[C@@H](NC(=O)[C@H](Cc1ccc(O)cc1)NC(=O)[C@H](CC(N)=O)NC(=O)[C@H](CC(=O)O)NC(=O)[C@@H](NC(=O)[C@H](Cc1ccccc1)NC(=O)[C@H](CC(C)C)NC(=O)[C@H](C)NC(=O)[C@H](CC(=O)O)NC(=O)[C@H](CO)NC(=O)[C@H](Cc1c[nH]cn1)NC(C)=O)[C@@H](C)O)[C@@H](C)O)[C@@H](C)O)C(C)C)[C@@H](C)O)C(N)=O) [Ac--(SEQ ID NO: 8)--NH2] | 0.28 µg | –
5 | Ac--[p-F--Phe^6, Lys^12, Nle^17, Ala^19, Val^26, Thr^28, Gly^29,30, Cys(Acm)^31 ]--VIP (Ac-HSDAV[Phe(4-F)]TDNYTKLRKQ[Nle]AAKKYLNSVLTGG[Cys(Acm)]-NH2; SMILES CCCC[C@H](NC(=O)[C@H](CCC(N)=O)NC(=O)[C@H](CCCCN)NC(=O)[C@H](CCCNC(=N)N)NC(=O)[C@H](CC(C)C)NC(=O)[C@H](CCCCN)NC(=O)[C@@H](NC(=O)[C@H](Cc1ccc(O)cc1)NC(=O)[C@H](CC(N)=O)NC(=O)[C@H](CC(=O)O)NC(=O)[C@@H](NC(=O)[C@H](Cc1ccc(F)cc1)NC(=O)[C@@H](NC(=O)[C@H](C)NC(=O)[C@H](CC(=O)O)NC(=O)[C@H](CO)NC(=O)[C@H](Cc1c[nH]cn1)NC(C)=O)C(C)C)[C@@H](C)O)[C@@H](C)O)C(=O)N[C@@H](C)C(=O)N[C@@H](C)C(=O)N[C@@H](CCCCN)C(=O)N[C@@H](CCCCN)C(=O)N[C@@H](Cc1ccc(O)cc1)C(=O)N[C@@H](CC(C)C)C(=O)N[C@@H](CC(N)=O)C(=O)N[C@@H](CO)C(=O)N[C@H](C(=O)N[C@@H](CC(C)C)C(=O)N[C@H](C(=O)NCC(=O)NCC(=O)N[C@@H](CSCNC(C)=O)C(N)=O)[C@@H](C)O)C(C)C) [Ac--(SEQ ID NO: 76)--NH2] | 017 µg | –
6 | Ac--[Glu^8, Lys^12, Nle^17, Val^26, Thr^28, Gly^29,30, Met^31 ]--VIP (Ac-HSDAVFTENYTKLRKQ[Nle]AVKKYLNSVLTGGM-NH2; SMILES CCCC[C@H](NC(=O)[C@H](CCC(N)=O)NC(=O)[C@H](CCCCN)NC(=O)[C@H](CCCNC(=N)N)NC(=O)[C@H](CC(C)C)NC(=O)[C@H](CCCCN)NC(=O)[C@@H](NC(=O)[C@H](Cc1ccc(O)cc1)NC(=O)[C@H](CC(N)=O)NC(=O)[C@H](CCC(=O)O)NC(=O)[C@@H](NC(=O)[C@H](Cc1ccccc1)NC(=O)[C@@H](NC(=O)[C@H](C)NC(=O)[C@H](CC(=O)O)NC(=O)[C@H](CO)NC(=O)[C@H](Cc1c[nH]cn1)NC(C)=O)C(C)C)[C@@H](C)O)[C@@H](C)O)C(=O)N[C@@H](C)C(=O)N[C@H](C(=O)N[C@@H](CCCCN)C(=O)N[C@@H](CCCCN)C(=O)N[C@@H](Cc1ccc(O)cc1)C(=O)N[C@@H](CC(C)C)C(=O)N[C@@H](CC(N)=O)C(=O)N[C@@H](CO)C(=O)N[C@H](C(=O)N[C@@H](CC(C)C)C(=O)N[C@H](C(=O)NCC(=O)NCC(=O)N[C@@H](CCSC)C(N)=O)[C@@H](C)O)C(C)C)C(C)C) [Ac--(SEQ ID NO: 9)--NH2] | 1.7 µg | –
